Assay results: patent US11801242B2, “Compositions and methods for adjuvant cancer therapeutics” (DUKE UNIVERSITY, priority 2018, dated 2023)

Experiments:
[1] = tested on: A375 xenograft tumors; assay: Murine xenograft tumor model; type: in vivo, mouse; settings: co-administration RE01 1.6 mg/kg with cisplatin 1 mg/kg, intratumoral, twice per week for 5 weeks
Method: NCRNU-F (nude) female, 6-8-week-old mice were divided into 4 groups (with 6 animals per group) for saline, cisplatin alone, RE01 alone, and cisplatin and RE01 combination treatments. Three million A375 cells mixed in matrigel (Corning) were injected into each flank of the 6 mice to generate 10-12 xenograft tumors per treatment group. After the tumors grew to a total tumor volume of at least 100 mm^3, the drugs (saline, cisplatin alone, RE01 alone, and cisplatin and RE01 combination) with a total volume of 100 μL per injection were injected directly into the tumor. Treatments were carried out twice per week for 5 weeks. On the dosing day, tumors were first measured with calipers, weights were recorded, and then the drugs would be injected directly into the tumors. The mice were sedated with isofluorane prior to measurements and treatments.
The drugs were formulated in 10% EtOH, 40% PEG400, and 50% saline for all the four types of treatments. Cisplatin was injected at a dose of 1 mg/kg per animal and RE01 was administered at a 1.6 mg/kg per animal. In the combination treatment of cisplatin and RE01, the same doses of 1 mg/kg and 1.6 mg/kg respectively per animal were administered. Tumor volumes were calculated by the formula (W^2×L)/2 as described previously.

[2] = tested on: Rev1^−/− MEF cells; assay: Clonogenic survival assay; type: cell-based, mouse
Method: 300 cells were plated in triplicate in 6-well plates for 24 hours. Cisplatin (cis-diammineplatinum(II) dichloride, Sigma-Aldrich) was added to relevant wells for 24 hours. All plates were incubated at 37° C. for 24 hours. Media were changed the next day and in fresh media RE01 (at 1.5 μM concentration) was added to untreated or cisplatin-treated cells for another 24 hours. Media were changed at the end of these combination treatments, and cells were allowed to recover for 7 days. To stain the resulting colonies, media were aspirated and the fixative (50% methanol and 10% glacial acetic acid) was added for 10 minutes, followed by the addition of 0.02% Coomassie brilliant blue R-250 stain (ThermoFisher) in methanol: acetic acid: water in a ratio of 46.5:7:46.5 (v/v/v). Colonies that stained blue and contained at least 40 cells were counted. Relative cell survival or colony formation was calculated by dividing colony counts from treated samples by the DMSO or untreated controls.
REV1 was knocked down by transiently transfecting SMARTpool: ON-TARGETplus REV1 siRNA by nucleofection. The siRNA was mixed with the nucleofection buffer Mouse/Rat Hepatocyte Nucleofector™ Kit (Lonza) and electroporated using the Nucleofector™ 2b device. Full-length mouse Rev1 on the pC3 plasmid (Clontech) was nucleofected using the same buffers and device into Rev1^−/− cells to complement the REV1 function.

[3] = molecular target: T1, chimeric REV1 CTD protein (Mus musculus, UniProt Q920Q2); assay: Isothermal titration calorimetry; type: binding; settings: 25° C.
T1 construct: the mouse REV1 CTD (F1150-T1249); His10-GB1 (TEV site) (N, cleaved yes); made in house; host or cells: E. coli BL21 Star (DE3)
T1 sequence (Q920Q2 1150-1249): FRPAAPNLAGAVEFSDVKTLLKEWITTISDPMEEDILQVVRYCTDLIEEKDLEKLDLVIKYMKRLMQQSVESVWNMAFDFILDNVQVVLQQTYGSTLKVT
Method: Isothermal titration calorimetry measurements were carried out using a MicroCal VP-ITC instrument at 25° C., with the chimeric REV1 CTD protein (300 μM) in the syringe and compound (15 μM) in the cell. Compounds were initially dissolved in 50% MPD. Protein and compound samples were diluted in a buffer containing 50 mM HEPES pH 7.5, 50 mM KCl, 2 mM TCEP, 2% DMSO and 0.1% MPD. Microcal Origin 7 software was used to analyze the data.

CC(C)CC(=O)c1c(Nc2ccc(Cl)cc2Cl)[nH]c2c(Cl)ccc([N+](=O)[O-])c2c1=O [RE01, 8-chloro-2-((2,4-dichlorophenyl)amino)-3-(3-methylbutanoyl)-5-nitroquinolin-4(1H)-one]
growth of xenograft human melanomas [1]: strikingly suppresses | colony forming ability ([2]; RE01 1.5 μM + cisplatin 0.5 μM vs cisplatin alone): but not in Rev1^−/− MEF cells | RE01 mediated sensitization to cisplatin ([2]; cells complemented with plasmid encoding REV1, RE01 1.5 μM, cisplatin 1 μM): fully restored | protein-to-ligand stoichiometry [3]: 2.04±0.03 | Kd ([3]; read-out: dissociation constant (Kd)): 420 ± 110 nM
